From patent publication US20030059774A1, “Detection of CYP2C19 polymorphisms” (priority 2000, published 2003)

Tested on: CYP2C19
Experiment: Omeprazole metabolic ratio (MR) phenotyping of study subjects, correlated with CYP2C19 5' flanking region haplotypes
Format: in vivo, human
Conditions: for MR (Ome), predicted metabolic ratio: based on 144 samples; for MR-range (min-max): omeprazole 20 mg oral, 3 hours; for mr50 (metabolic ratio of the 50th percentile), mr(omeprazole): single oral dose 20 mg omeprazole, blood sample 3 hours after intake
Procedure: The study was performed in accordance with the principles stated in the Declaration of Helsinki as reviewed in Tokyo 1975 and Venice 1983, Hong Kong 1989 and Somerset West 1996. Subjects were preferably not related to each other. Based on questioning, individuals having one of the following were excluded: a medical condition judged to influence liver function or requiring pharmacological treatment; any on-going disease; intake of any drug, except oral contraceptives, during one week prior to the study; breast-feeding or pregnancy. No physical examination was performed. For these experiments, a single oral dose of 20 mg omeprazole (Losec, AstraZeneca) was given in the morning after an overnight fast. The bladder was emptied before drug intake. A single blood sample was collected 3 hours after drug intake.
In the first part of the study, approximately 90 samples (Swedish Caucasians) were selected as set forth in Table 1, on the basis of the following assumptions: if the distribution of an unknown polymorphism will be 25% for a homozygote, a sample size of approximately 40 “UEM” will be able to detect an increase in this specific genotype (homozygote) by 28% (α=5% (two-tailed), power=80%). If it is assumed that the distribution of an unknown polymorphism will be 10% for a homozygote, a sample size of approximately 40 “UEM” will be able to detect an increase in this specific genotype (homozygote) by 21% (α-5% (two-tailed), power=80%). The samples were selected with regard to their phenotyped metabolic ratios (MR) of omeprazole. Available genotype information for all samples was provided.
In the second part of the study, 71 samples with a more normal phenotypic distribution were used. Also, no exclusion of individuals with known defective alleles or duplications was done.
This analysis was performed using software based on maximum likelihood methodology and using the EM algorithm of Excoffier et al. (1995), Mol Biol Evol. 12:921-927. […] From the haplotype information two different kinds of variables were created: one variable was formed as a haplotype combination variable (HTYPE). This variable has the value H1/H2 when the subject has haplotypes 1 and 2, etc. Variables H1, H2, H3 and H4 are haplotype annotations that denote the number of copies of that particular haplotype for the subject, e.g., for a subject with haplotype H1/H2 the variables H1, H2, H3 and H4 will be 1, 1, 0 and 0, respectively. Each of these variables can thus take on the values 0, 1 or 2. Only the four most frequent haplotypes were considered when those variables were formed.

In the case of `COc1ccc2[nH]c([S+]([O-])Cc3ncc(C)c(OC)c3C)nc2c1` (stereo not drawn) [omeprazole], the “MR (Ome), predicted metabolic ratio” value (HTYPE H1/H1 (352 C, 1060 T), marker for EM) is reported as 0.2-0.8, the “MR-range (min-max)” value (HTYPE H1/H1, 63 subjects) is reported as 0.17-2.90 and the “MR (Ome), predicted metabolic ratio” value (HTYPE H1/H2 (352 C/T, 1060 T), marker for UEM & EM) is reported as <0.8. For the same molecule, the “MR-range (min-max)” value (HTYPE H1/H2, 31 subjects) was 0.12-2.62, the “MR (Ome), predicted metabolic ratio” value (HTYPE H1/H3 (352 C, 1060 C/T), marker for EM &IM) was 0.4-7.0 and the “MR-range (min-max)” value (HTYPE H1/H3, 27 subjects) was 0.03-11.87. For the same molecule, the “MR (Ome), predicted metabolic ratio” value (HTYPE H2/H2 (352 T, 1060 T), marker for UEM/EM) was <0.4, the “MR-range (min-max)” value (HTYPE H2/H2, 4 subjects) was 0.15-0.33 and the “MR (Ome), predicted metabolic ratio” value (HTYPE H2/H3 (352 C/T, 1060 C/T), marker for EM & (IM)) was 0.4-2.0. For the same molecule, the “MR-range (min-max)” value (HTYPE H2/H3, 12 subjects) was 0.36-1.75, the “MR (Ome), predicted metabolic ratio” value (HTYPE H3/H3 (352 C, 1060 C), marker for PM) was >7.0 and the “MR-range (min-max)” value (HTYPE H3/H3, 7 subjects) was 1.28-23.75. The “mr50 (metabolic ratio of the 50th percentile), mr(omeprazole)” value (haplotype H1/H1, n = 60) was “mr50 = 0.485”, the “mr50 (metabolic ratio of the 50th percentile), mr(omeprazole)” value (haplotype H1/—, n = 63) was “mr50 = 0.63” and the “mr50 (metabolic ratio of the 50th percentile), mr(omeprazole)” value (haplotype H2/H2, n = 4) was “mr50 = 0.25”. For the same molecule, the “mr50 (metabolic ratio of the 50th percentile), mr(omeprazole)” value (haplotype H2/—, n = 44) was “mr50 = 0.485”, the “mr50 (metabolic ratio of the 50th percentile), mr(omeprazole)” value (haplotype H3/H3, n = 7) was “mr50 = 16.86” and the “mr50 (metabolic ratio of the 50th percentile), mr(omeprazole)” value (haplotype H3/—, n = 39) was “mr50 = 0.88”. The “mr50 (metabolic ratio of the 50th percentile), mr(omeprazole)” value (haplotype H4/H4, n = 2) was “mr50 = 1.5”, the “mr50 (metabolic ratio of the 50th percentile), mr(omeprazole)” value (haplotype H4/—, n = 14) was “mr50 = 0.755” and the “mr50 (metabolic ratio of the 50th percentile), mr(omeprazole)” value (haplotype —/— (no copy of H1), n = 30) was “mr50 = 0.97”. The “mr50 (metabolic ratio of the 50th percentile), mr(omeprazole)” value (haplotype —/— (no copy of H2), n = 105) was “mr50 = 0.64”, the “mr50 (metabolic ratio of the 50th percentile), mr(omeprazole)” value (haplotype —/— (no copy of H3), n = 107) was “mr50 = 0.47” and the “mr50 (metabolic ratio of the 50th percentile), mr(omeprazole)” value (haplotype —/— (no copy of H4), n = 137) was “mr50 = 0.56”.
